Measured values: patent US12162934B2, “Gremlin-1 antagonist for the prevention and treatment of cancer” (UCB BIOPHARMA SRL, priority 2018, dated 2024)

B1: rhGrem1: rhGrem1 protein used to stimulate breast cancer cells (protein)
chain: KKKGSQGAIPPPDKAQHNDSEQTQSPQQPGSRNRGRGQGRGTAMPGEEVLESSQEALHVTERKYLKRDWCKTQPLKQTIHEEGCNSRTIINRFCYGQCNSFYIPRHIRKEEGSFQSCSFCKPKKFTTMMVTLNCPELQPPTKKKRVTRVKQCRCISIDLD

Experiments:
[1] = tested on: MDA-MB-231 human breast cancer cells; experiment: MDA-MB-231 breast cancer model in NSG mice (BLI); type: in vivo; conditions: vs AbA33, p>0.05
Experimental: MDA-MB-231: 5-week old NOD/SCiD/gamma (NSG) immunocompromised mice were subcutaneously (s.c) administered two 30 mg/kg doses of anti-Grem1 antibody UCB6114 or IgG control, AbA33, the week prior to tumour cell inoculation. 1×10^5 luciferase expressing MDA-MB-231 human breast cancer cells were injected systemically via the CA.
Treatment continued twice weekly for the duration of the study. At weekly intervals, mice were administered 150 mg/kg luciferin intraperitoneally (i.p) and imaged using the Xenogen IVIS Bioluminescence Imaging System, and tumour burden was quantitated using Living Image software. The study ended on day 13 and day 22 post-tumour cell injection for the PyMT-B01 and MDA-MB-231 models respectively, according to animal ethics requirements. Organs were dissected upon culling animals and BLI imaged ex vivo for analysis of tumour metastasis.

[2] = tested on: PC-3 prostate cancer cells; experiment: PC-3 prostate cancer model in NSG mice (BLI); type: in vivo, human; conditions: vs AbA33
Experimental: The PC-3 human prostate cancer cell line was obtained from ATCC (Manassas, VA, USA). The cell line expresses luciferase produced by retroviral expression of the SFG-NES-TGL vector (Ponomarev, V., et al. 2004). Cancer cells were cultured in RPMI1640 (Life Technologies, Australia) supplemented with 10% foetal bovine serum (FBS, Life Technologies, Australia), 100 IU/mL penicillin (Life Technologies, Australia), 100 μg/mL streptomycin (Life Technologies, Australia) and 25 mM HEPES (Life Technologies, Australia) at 37° C. in a 5% CO2 humidified atmosphere.
5-week old NOD.Cg-Prkd^scid Il2rg^tm1Wjl/SzJ (NSG) immunocompromised mice were subcutaneously (s.c) administered two 30 mg/kg doses of anti-Grem1 antibody (UCB6114) or IgG control, AbA33, the week prior to tumour cell inoculation. 5×10^5 luciferase expressing PC-3 […] prostate cancer cells were injected systemically via the caudal artery (CA).
Antibody treatment continued twice weekly for the duration of the study. A t weekly intervals, mice were administered 150 mg/kg luciferin intraperitoneally (i.p) and imaged using the Xenogen IVIS Bioluminescence Imaging System, and tumour burden was quantitated using Living Image software (PerkinElmer, MA, USA). At the end of each study, organs were dissected upon culling animals and BLI imaged ex vivo for analysis of tumour metastasis.

MDA-MB-231-TXSA cells = experiment: Proliferation assay of MDA-MB-231-TXSA cells in hypoxia (luciferase); type: cell-based, human; conditions: rhGrem1 0-1000 ng/ml
Experimental: Luciferase expressing MDA-MB-231-TXSA cells were seeded in 96-well microtiter plates (1×10^4 cells/well). Cells were cultured either under normoxic or hypoxic conditions and allowed to adhere overnight. Cells were then serum starved for 6 hrs before treatment with increasing concentrations of rhGrem1 protein (0-1000 ng/ml). At 24 and 48 hr time points, luciferase expression was evaluated and used as a surrogate measure of cell number. Briefly, cells were washed in 1×PBS, and subsequently lysed in cell culture lysis buffer (Promega). Luciferase Assay Reagent (5 mM MgCl2, 30 mM HEPES, 150 μM ATP, […] Coenzyme A and 150 μg/mL D-luciferin (Biosynth AG, Staad, Switzerland)) was added to cell lysates, and luminescence was quantified immediately using a luminometer plate reader (Wallac 3000).

Molecule	Mean tumour burden (BLI) ([1]; day 22)	Mean tumour burden for lung metastasis (ex vivo BLI) [1]	Whole animal tumour burden (BLI) ([2]; 30 mg/kg s.c. twice weekly)	Hindlimb tumour burden (ex vivo BLI) [2]	Liver tumour burden (ex vivo BLI) [2]	Lung tumour burden (ex vivo BLI) [2]	Maximal increase in MDA-MB-231-TXSA proliferation, hypoxic compared to normoxic conditions (MDA-MB-231-TXSA cells; 24 hr) [fold]	Maximal increase in MDA-MB-231-TXSA proliferation, hypoxic compared to normoxic conditions (MDA-MB-231-TXSA cells; 48 hr) [fold]
UCB6114: novel anti-Grem1 neutralising monoclonal antibody	lower	reduction in mean tumour burden	significant reduction	downward trend	significant reduction	downward trend		
B1							1.5	1.7
